As a reminder, the IC50 is the concentration needed to halve the response being measured. The logD is lipophilicity at a set pH, counting ionised and neutral species.

Data set [1] addresses T1, Diacylglycerol O-acyltransferase 1 (Mus musculus, UniProt Q9Z2A7).
T1 sequence (Q9Z2A7 whole entry): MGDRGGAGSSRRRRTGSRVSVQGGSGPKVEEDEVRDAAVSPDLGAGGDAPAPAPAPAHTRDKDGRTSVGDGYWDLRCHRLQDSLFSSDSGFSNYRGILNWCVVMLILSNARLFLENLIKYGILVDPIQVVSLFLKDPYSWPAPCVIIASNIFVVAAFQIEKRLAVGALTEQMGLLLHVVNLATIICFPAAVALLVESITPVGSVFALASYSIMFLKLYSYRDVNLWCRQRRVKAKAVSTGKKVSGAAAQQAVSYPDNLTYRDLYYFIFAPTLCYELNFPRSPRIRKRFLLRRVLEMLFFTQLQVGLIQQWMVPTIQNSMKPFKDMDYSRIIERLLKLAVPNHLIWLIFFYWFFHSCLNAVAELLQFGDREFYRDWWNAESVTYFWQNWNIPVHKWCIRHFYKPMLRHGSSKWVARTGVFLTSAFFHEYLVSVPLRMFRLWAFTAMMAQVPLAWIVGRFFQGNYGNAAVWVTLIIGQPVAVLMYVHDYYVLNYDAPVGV
Nature of the data set: Inhibition of mouse DGAT1.

A short description of data set [2]: Plasma concentration in mouse at 3 mg/kg, po. Particulars: in vivo. Type of data set: ADME, organism-based.
Data set [3] has as its system Mus musculus. Nature of the data set: Reduction in lipid excursion in mouse assessed as change in triglyceride level at 3 mg/kg, po measured at 18 hrs post dose by lipid tolerance test. Type of data set: functional. Also on record: scale not given: the % may be the effect or the level left.
Data set [4] in a line: Lipophilicity, log D of the compound by HPLC analysis. Type of data set: physicochemical.
The species named for data set [5] is Homo sapiens. Nature of the data set: Selectivity index, ratio of IC50 for human ACAT1 to IC50 for human DGAT1.
The target of data set [6] is T2, Diacylglycerol O-acyltransferase 1 (Homo sapiens, UniProt O75907).
T2 sequence (O75907 whole entry): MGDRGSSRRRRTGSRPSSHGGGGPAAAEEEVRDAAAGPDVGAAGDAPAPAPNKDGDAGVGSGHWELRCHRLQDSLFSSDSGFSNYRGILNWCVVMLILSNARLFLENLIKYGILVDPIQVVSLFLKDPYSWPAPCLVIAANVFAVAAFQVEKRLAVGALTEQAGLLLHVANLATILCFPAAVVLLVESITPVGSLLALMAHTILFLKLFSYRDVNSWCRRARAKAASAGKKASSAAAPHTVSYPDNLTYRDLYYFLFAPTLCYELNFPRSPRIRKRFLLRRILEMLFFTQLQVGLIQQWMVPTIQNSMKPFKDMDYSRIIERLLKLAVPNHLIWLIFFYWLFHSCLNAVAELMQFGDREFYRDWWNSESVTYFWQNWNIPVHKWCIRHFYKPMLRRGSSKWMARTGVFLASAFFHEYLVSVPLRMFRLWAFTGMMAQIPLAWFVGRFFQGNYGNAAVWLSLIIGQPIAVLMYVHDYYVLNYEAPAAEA
The data set can be described thus: Inhibition of human DGAT1.

The target of data set [7] is T3, Sterol O-acyltransferase 1 (Homo sapiens, UniProt P35610).
T3 sequence (P35610 whole entry): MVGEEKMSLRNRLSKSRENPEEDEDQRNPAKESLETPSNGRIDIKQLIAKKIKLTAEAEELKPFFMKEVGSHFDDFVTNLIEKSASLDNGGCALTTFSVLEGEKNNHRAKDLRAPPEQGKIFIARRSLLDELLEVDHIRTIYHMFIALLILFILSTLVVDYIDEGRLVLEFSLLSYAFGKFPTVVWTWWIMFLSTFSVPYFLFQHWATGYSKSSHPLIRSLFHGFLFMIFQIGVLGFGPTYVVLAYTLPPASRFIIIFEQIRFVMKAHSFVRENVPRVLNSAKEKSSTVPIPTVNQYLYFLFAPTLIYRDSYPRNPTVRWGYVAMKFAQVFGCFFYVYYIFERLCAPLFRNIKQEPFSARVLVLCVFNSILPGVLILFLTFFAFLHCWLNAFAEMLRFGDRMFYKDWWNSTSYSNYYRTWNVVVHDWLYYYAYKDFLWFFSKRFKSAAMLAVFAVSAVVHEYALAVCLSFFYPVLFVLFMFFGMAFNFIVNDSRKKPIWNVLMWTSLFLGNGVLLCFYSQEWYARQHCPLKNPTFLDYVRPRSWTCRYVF
The data set can be described thus: Inhibition of human ACAT1.

Data set [8] can be described thus: Stability in human hepatocytes assessed as epimerization incubated for 2 hrs by UPLC/HRMS analysis. It counts as ADME, cell-based, Hepatocyte.
Data set [9] is described as follows: Plasma concentration in mouse at 10 mg/kg, po. The conditions noted are these: in vivo. It counts as ADME, organism-based.
The nature of data set [10]: Plasma concentration in mouse at 10 mg/kg, po after 3 hrs. It counts as ADME, organism-based.
The test system of data set [11] is Mus musculus. The data set can be described thus: Reduction in lipid excursion in mouse assessed as change in triglyceride level at 10 mg/kg, po measured at 18 hrs post dose by lipid tolerance test. It counts as functional. The arrangement: scale not given: the % may be the effect or the level left.
Data set [12] can be described thus: Stability in mouse hepatocytes assessed as epimerization incubated for 2 hrs by UPLC/HRMS analysis. It counts as ADME, cell-based, Hepatocyte.
Data set [13] is described as follows: Stability in rat hepatocytes assessed as epimerization incubated for 2 hrs by UPLC/HRMS analysis. It counts as ADME, cell-based, Hepatocyte.
Data set [14] can be described thus: Drug metabolism in mouse assessed as epimerization by measuring plasma concentration of 1s,4s)-4-(1-(5-(5-(trifluoromethyl)-1H-benzo[d]imidazol-2-yl)pyridin-2-yl)piperidin-4-yloxy)cyclohexanecarboxylic acid at 10 mg/kg, po after 3 hrs. It counts as ADME, organism-based. The conditions noted are these: in vivo.
Data set [15] in a line: Drug metabolism in mouse hepatocytes assessed as glucuronide formation incubated for 2 hrs by UPLC/HRMS analysis. It counts as ADME, cell-based, Hepatocyte.
A short description of data set [16]: Drug metabolism in human hepatocytes assessed as glucuronide formation incubated for 2 hrs by UPLC/HRMS analysis. Type of data set: ADME, cell-based, Hepatocyte.
Data set [17] is described as follows: Plasma concentration in mouse at 10 mg/kg, po after 4 hrs. Type of data set: ADME, organism-based.
A short description of data set [18]: Drug metabolism in rat hepatocytes assessed as glucuronide formation incubated for 2 hrs by UPLC/HRMS analysis. It counts as ADME, cell-based, Hepatocyte.

`O=C(O)[C@@H]1[C@@H]2C[C@@H](OC3CCN(c4ccc(-c5nc6cc(C(F)(F)F)ccc6[nH]5)cn4)CC3)C[C@@H]21`: the IC50 is 48 nM in [1], 5.9 nM in [6] and > 10000 nM in data set [7]. Also, the concentration in data set [2] turned out to be 51 nM. Besides, in data set [3], the Activity was -30%. The logD in [4] turned out to be 1.73. In addition, in data set [5], the Ratio IC50 is > 1690.
With `O=C(O)[C@H]1CC[C@H](OC2CCN(c3ccc(-c4nc5cc(C(F)(F)F)ccc5[nH]4)cn3)CC2)CC1`, the Stability result in data set [8], in data set [12] and in data set [13] was “Unstable” each time. In addition, the concentration in [9] was found to be 17 nM; in [14] it was 54 nM. The compound further registered a concentration at 3 h in data set [10] of 324 nM. The logD in data set [4] came out at 1.68. In addition, in data set [11], the Activity is on record as -89%. Also, the Ratio IC50 in data set [5] was > 2500.
Regarding `O=C(O)[C@H]1[C@@H]2C[C@@H](OC3CCN(c4ccc(-c5nc6cc(C(F)(F)F)ccc6[nH]5)cn4)CC3)C[C@@H]21`, the IC50 in data set [1] was 22 nM; in data set [6] it was 3.8 nM; in [7] it was > 10000 nM. For the same compound, in data set [2], the concentration is 25 nM. Besides, the Activity in [3] was -30%. In addition, the logD in [4] was 1.87. Besides, in data set [5], the Ratio IC50 is > 2600.
Consider `O=C(O)[C@H]1CC[C@@H](OC2CCN(c3ccc(-c4nc5cc(C(F)(F)F)ccc5[nH]4)cn3)CC2)CC1`, for which the Stability entry in data set [8], in [12] and in data set [13] was “Unstable” in each case. The same compound registered a concentration in data set [9] of 26 nM. This compound had a logD in data set [4] of 1.64. Also, in data set [11], the Activity is on record as -75%. In data set [5], the Ratio IC50 is > 4000.
`O=C(O)[C@H]1[C@@H]2C[C@H](OC3CCN(c4ccc(-c5nc6cc(C(F)(F)F)ccc6[nH]5)cn4)CC3)C[C@@H]21`: the concentration for half-maximal inhibition (IC50) came out at 4.3 nM in data set [1] and 3900 nM in data set [7]. Besides, the Drug metabolism entry in [15], in data set [16] and in data set [18] was “Metabolite_Detected” in each case. The Stability entry in [8], in data set [12] and in data set [13] was “Stable” throughout. This compound registered a concentration in data set [2] of 27 nM. Further, in [3], the Activity was -70%. The compound further returned a logD in data set [4] of 1.9. The concentration at 4 h in data set [17] was 151 nM. For the same compound, the Ratio IC50 in data set [5] came to 1950.
Consider `O=C(O)[C@@H]1[C@@H]2C[C@H](OC3CCN(c4ccc(-c5nc6cc(C(F)(F)F)ccc6[nH]5)cn4)CC3)C[C@@H]21`, for which the IC50 in data set [1] is 74 nM; in data set [7], > 10000 nM. Moreover, the Drug metabolism entry in [15], in data set [16] and in data set [18] was “Metabolite_Detected” each time. Besides, the Stability entry in [8], in [12] and in data set [13] was “Stable” in each case. This compound also gave a concentration in data set [2] of 23 nM. Also, the Activity in data set [3] worked out at 3%. Further, the logD in [4] worked out at 1.88. In data set [5], the Ratio IC50 was > 900.
